tested on: mitochondria or chloroplast of Chlamydomonas reinhardtii; experiment: Subcellular localization of Venus reporter by epifluorescence microscopy (manual targeting assignment); format: cell-based; conditions: manual targeting assignment of the Venus reporter construct in Chlamydomonas: Neither / Mitochondria / Chloroplast / Dual, (partial) = partial targeting
How it was run: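 Targeting peptide variants fused to Venus reporter, transformed into Chlamydomonas wild-type T222+ (CC-5101); three independent transformant lines per construct. Localization assigned manually from epifluorescence images using chlorophyll autofluorescence for chloroplast and 0.1 μM MitoTracker Red CMXRos (30 min) for mitochondria. Automated segmentation used for validation.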

**Q.** How did the Localisation turn out when “MQVTMKSSAVSGQRVMLKKVGQSLVPFAKAG [c.MH.K]” was run?
**A.** Neither

**Q.** How did the Localisation turn out when “MQVTMKSSAVSGQRVMLKKVGQSLVPFAKAGLTQTAESFKGVSSQFFDAPNGPSVKQVLIEDEW [c.MH.K.m]” was run?
**A.** Neither

**Q.** For “MQVTMKSSAVSGQRVMLKKVGQSLVPFAKAGSVRRAQLQVVASSRKQMGRWRSIDAGVDASDDQ [c.MH.K.c]”, which Localisation is on record?
**A.** Chloroplast

**Q.** Which Localisation does the source give for “MQVTMKSSAVSGQRVMLKRVGQSLVPFARAG [c.MH.R]” here?
**A.** Neither

**Q.** Which Localisation does the source give for “MQVTMKSSAVSGQRVMLKRVGQSLVPFARAGLTQTAESFRGVSSQFFDAPNGPSVKQVLIEDEW [c.MH.R.m]” here?
**A.** Neither

**Q.** Which Localisation does the source give for “MQVTMKSSAVSGQRVMLKRVGQSLVPFARAGSVRRAQLQVVASSRKQMGRWRSIDAGVDASDDQ [c.MH.R.c]” here?
**A.** Chloroplast

**Q.** How did the Localisation turn out when “MQVTMKSSAVSGQRVRYYGNGVSCNRRGCSVDWGRAIGIIGNNAAANLTTGGRAGWRG [c.EHF.R]” was run?
**A.** Chloroplast (partial)

**Q.** For “MQVTMKSSAVSGQRVRYYGNGVSCNRRGCSVDWGRAIGIIGNNAAANLTTGGRAGWRGLTQTAESFRGVSSQFFDAPNGPSVKQVLIEDEW [c.EHF.R.m]”, which Localisation is on record?
**A.** Chloroplast

**Q.** “MQVTMKSSAVSGQRVRYYGNGVSCNRRGCSVDWGRAIGIIGNNAAANLTTGGRAGWRGSVRRAQLQVVASSRKQMGRWRSIDAGVDASDDQ [c.EHF.R.c]” was tested. Which Localisation did it give?
**A.** Chloroplast

**Q.** “MQVTMKSSAVSGQRVSFLTTFRDLAIRAARSAGQSVLSTLSCRLSNTC [c.B2I.R]” was tested. Which Localisation did it give?
**A.** Mitochondria (partial)

**Q.** “MQVTMKSSAVSGQRVSFLTTFRDLAIRAARSAGQSVLSTLSCRLSNTCLTQTAESFRGVSSQFFDAPNGPSVKQVLIEDEW [c.B2I.R.m]” was tested. Which Localisation did it give?
**A.** Dual

**Q.** For “MQVTMKSSAVSGQRVSFLTTFRDLAIRAARSAGQSVLSTLSCRLSNTCSVRRAQLQVVASSRKQMGRWRSIDAGVDASDDQ [c.B2I.R.c]”, which Localisation is on record?
**A.** Chloroplast

**Q.** Which Localisation does the source give for “MRYYGNGVSCNRRGCSVDWGRAIGIIGNNAAANLTTGGRAGWRG [EHF.R]” here?
**A.** Neither

**Q.** For “MRYYGNGVSCNRRGCSVDWGRAIGIIGNNAAANLTTGGRAGWRGLTQTAESFRGVSSQFFDAPNGPSVKQVLIEDEW [EHF.R.m]”, which Localisation is on record?
**A.** Chloroplast

**Q.** “MRYYGNGVSCNRRGCSVDWGRAIGIIGNNAAANLTTGGRAGWRGSVRRAQLQVVASSRKQMGRWRSIDAGVDASDDQ [EHF.R.c]” was tested. Which Localisation did it give?
**A.** Chloroplast

**Q.** Which Localisation does the source give for “MSFLTTFRDLAIRAARSAGQSVLSTLSCRLSNTC [B2I.R]” here?
**A.** Mitochondria

**Q.** “MSFLTTFRDLAIRAARSAGQSVLSTLSCRLSNTCLTQTAESFRGVSSQFFDAPNGPSVKQVLIEDEW [B2I.R.m]” was tested. Which Localisation did it give?
**A.** Mitochondria

**Q.** For “MSFLTTFRDLAIRAARSAGQSVLSTLSCRLSNTCSVRRAQLQVVASSRKQMGRWRSIDAGVDASDDQ [B2I.R.c]”, which Localisation is on record?
**A.** Mitochondria

**Q.** “MSVRRAQLQVVASSRKQMGRWRSIDAGVDASDDQ [-.c]” was tested. Which Localisation did it give?
**A.** Neither

same assay, conditions: peptide-Venus reporter construct expressed in Chlamydomonas reinhardtii; manual targeting assignment (Neither / Mitochondria / Chloroplast / Dual; partial = partial targeting)

**Q.** With “MQVTMKSSAVSGQRVMVNYGNGVSCSKTKCSVNWGIITHQAFRVTSGVASG [c.B15.K]” as the sequence, how does the Localisation read?
**A.** Neither

**Q.** “MQVTMKSSAVSGQRVMVNYGNGVSCSKTKCSVNWGIITHQAFRVTSGVASGLTQTAESFRGVSSQFFDAPNGPSVKQVLIEDEW [c.B15.K.m]” was tested. Which Localisation did it give?
**A.** Chloroplast

**Q.** Which Localisation does the source give for “MQVTMKSSAVSGQRVMVNYGNGVSCSKTKCSVNWGIITHQAFRVTSGVASGSVRRAQLQVVASSRKQMGRWRSIDAGVDASDDQ [c.B15.K.c]” here?
**A.** Chloroplast

**Q.** “MQVTMKSSAVSGQRVMVNYGNGVSCSRTRCSVNWGIITHQAFRVTSGVASG [c.B15.R]” was tested. Which Localisation did it give?
**A.** Chloroplast

**Q.** For “MQVTMKSSAVSGQRVMVNYGNGVSCSRTRCSVNWGIITHQAFRVTSGVASGLTQTAESFRGVSSQFFDAPNGPSVKQVLIEDEW [c.B15.R.m]”, which Localisation is on record?
**A.** Chloroplast

**Q.** With “MQVTMKSSAVSGQRVMVNYGNGVSCSRTRCSVNWGIITHQAFRVTSGVASGSVRRAQLQVVASSRKQMGRWRSIDAGVDASDDQ [c.B15.R.c]” as the sequence, how does the Localisation read?
**A.** Chloroplast

**Q.** Which Localisation does the source give for “MQVTMKSSAVSGQRVMWLSKTAKKLENSAKKRISEGIAIAIKGGSRSVRRAQLQVVASSRKQMGRWRSIDAGVDASDDQ [c.CP3.K.c]” here?
**A.** Neither

**Q.** How did the Localisation turn out when “MQVTMKSSAVSGQRVMWLSRTARRLENSARRRISEGIAIAIRGGSRSVRRAQLQVVASSRKQMGRWRSIDAGVDASDDQ [c.CP3.R.c]” was run?
**A.** Chloroplast

**Q.** With “MVNYGNGVSCSKTKCSVNWGIITHQAFRVTSGVASG [B15.K]” as the sequence, how does the Localisation read?
**A.** Neither

**Q.** “MVNYGNGVSCSKTKCSVNWGIITHQAFRVTSGVASGLTQTAESFRGVSSQFFDAPNGPSVKQVLIEDEW [B15.K.m]” was tested. Which Localisation did it give?
**A.** Neither

**Q.** With “MVNYGNGVSCSKTKCSVNWGIITHQAFRVTSGVASGSVRRAQLQVVASSRKQMGRWRSIDAGVDASDDQ [B15.K.c]” as the sequence, how does the Localisation read?
**A.** Chloroplast

**Q.** Which Localisation does the source give for “MVNYGNGVSCSRTRCSVNWGIITHQAFRVTSGVASG [B15.R]” here?
**A.** Neither

**Q.** For “MVNYGNGVSCSRTRCSVNWGIITHQAFRVTSGVASGLTQTAESFRGVSSQFFDAPNGPSVKQVLIEDEW [B15.R.m]”, which Localisation is on record?
**A.** Neither

**Q.** How did the Localisation turn out when “MVNYGNGVSCSRTRCSVNWGIITHQAFRVTSGVASGSVRRAQLQVVASSRKQMGRWRSIDAGVDASDDQ [B15.R.c]” was run?
**A.** Chloroplast

**Q.** Which Localisation does the source give for MWLSKTAKKLENSAKKRISEGIAIAIKGGSR [CP3.K] here?
**A.** Neither

**Q.** How did the Localisation turn out when “MWLSKTAKKLENSAKKRISEGIAIAIKGGSRLTQTAESFRGVSSQFFDAPNGPSVKQVLIEDEW [CP3.K.m]” was run?
**A.** Neither

same assay, conditions: targeting of the Venus reporter fused to the peptide, expressed in Chlamydomonas reinhardtii; manual assignment from epifluorescence microscopy; full or partial

**Q.** “MQVTMKSSAVSGQRVMKYYGNGVSCNKKGCSVDWGKAIGIIGNNAAANLTTGGKAGWKGSVRRAQLQVVASSRKQMGRWRSIDAGVDASDDQ [c.EHF.K.c]” was tested. Which Localisation did it give?
**A.** Chloroplast

**Q.** Which Localisation does the source give for “MQVTMKSSAVSGQRVMSFLTTFKDLAIKAAKSAGQSVLSTLSCKLSNTC [c.B2I.K]” here?
**A.** Mitochondria (partial)

**Q.** For “MQVTMKSSAVSGQRVMSFLTTFKDLAIKAAKSAGQSVLSTLSCKLSNTCLTQTAESFRGVSSQFFDAPNGPSVKQVLIEDEW [c.B2I.K.m]”, which Localisation is on record?
**A.** Mitochondria

**Q.** With “MQVTMKSSAVSGQRVMSFLTTFKDLAIKAAKSAGQSVLSTLSCKLSNTCSVRRAQLQVVASSRKQMGRWRSIDAGVDASDDQ [c.B2I.K.c]” as the sequence, how does the Localisation read?
**A.** Chloroplast (partial)

**Q.** Which Localisation does the source give for “MQVTMKSSAVSGQRVMWLSKTAKKLENSAKKRISEGIAIAIKGGSR [c.CP3.K]” here?
**A.** Neither

**Q.** With “MQVTMKSSAVSGQRVMWLSKTAKKLENSAKKRISEGIAIAIKGGSRLTQTAESFRGVSSQFFDAPNGPSVKQVLIEDEW [c.CP3.K.m]” as the sequence, how does the Localisation read?
**A.** Chloroplast

**Q.** “MQVTMKSSAVSGQRVMWLSRTARRLENSARRRISEGIAIAIRGGSR [c.CP3.R]” was tested. Which Localisation did it give?
**A.** Chloroplast (partial)

**Q.** For “MQVTMKSSAVSGQRVMWLSRTARRLENSARRRISEGIAIAIRGGSRLTQTAESFRGVSSQFFDAPNGPSVKQVLIEDEW [c.CP3.R.m]”, which Localisation is on record?
**A.** Neither

**Q.** With “MQVTMKSSAVSGQRVNIVVYWNFTLWHMDINARNAGCDGEGS [c.RP1.K]” as the sequence, how does the Localisation read?
**A.** Neither

**Q.** How did the Localisation turn out when “MQVTMKSSAVSGQRVNIVVYWNFTLWHMDINARNAGCDGEGSLTQTAESFRGVSSQFFDAPNGPSVKQVLIEDEW [c.RP1.K.m]” was run?
**A.** Neither

**Q.** With “MQVTMKSSAVSGQRVNIVVYWNFTLWHMDINARNAGCDGEGSSVRRAQLQVVASSRKQMGRWRSIDAGVDASDDQ [c.RP1.K.c]” as the sequence, how does the Localisation read?
**A.** Neither

**Q.** “MQVTMKSSAVSGQRVSVRRAQLQVVASSRKQMGRWRSIDAGVDASDDQ [c.-.c]” was tested. Which Localisation did it give?
**A.** Chloroplast (partial)

**Q.** “MSFLTTFKDLAIKAAKSAGQSVLSTLSCKLSNTC [B2I.K]” was tested. Which Localisation did it give?
**A.** Mitochondria

**Q.** Which Localisation does the source give for “MSFLTTFKDLAIKAAKSAGQSVLSTLSCKLSNTCLTQTAESFRGVSSQFFDAPNGPSVKQVLIEDEW [B2I.K.m]” here?
**A.** Mitochondria

**Q.** Which Localisation does the source give for “MSFLTTFKDLAIKAAKSAGQSVLSTLSCKLSNTCSVRRAQLQVVASSRKQMGRWRSIDAGVDASDDQ [B2I.K.c]” here?
**A.** Mitochondria

From PMC10363480 (Plant Communications, 2023)
